Assays:
[1] = tested on: peripheral blood lymphocytes; test: Blood lymphocyte depletion in vivo; details: rats, p.o., after 6 h
Procedure: B. In Vivo: Blood Lymphocyte Depletion
A compound of formula I or the vehicle is administered orally by gavage to rats. Tail blood for hematological monitoring is obtained on day −1 to give the baseline individual values, and at 2, 6, 24, 48 and 72 hours after application. In this assay, the compounds of formula I deplete peripheral blood lymphocytes when administered at a dose of 0.03 to 3 mg/kg. For example, following results are obtained: depletion of peripheral blood lymphocytes by more than 50%.

[2] = target: T1, human S1P receptor EDG-8 (S1P5) (Homo sapiens, UniProt Q9H228); test: S1P receptor profiling, GTP[γ-35S] binding SPA; type: biochemical; set-up: key to S1P5 mode of action: Agon = agonist; details: for EC50: membranes of transfected CHO or RH7777 cells
T1 construct: expressed in transfected cells
T1 sequence (Q9H228 whole entry): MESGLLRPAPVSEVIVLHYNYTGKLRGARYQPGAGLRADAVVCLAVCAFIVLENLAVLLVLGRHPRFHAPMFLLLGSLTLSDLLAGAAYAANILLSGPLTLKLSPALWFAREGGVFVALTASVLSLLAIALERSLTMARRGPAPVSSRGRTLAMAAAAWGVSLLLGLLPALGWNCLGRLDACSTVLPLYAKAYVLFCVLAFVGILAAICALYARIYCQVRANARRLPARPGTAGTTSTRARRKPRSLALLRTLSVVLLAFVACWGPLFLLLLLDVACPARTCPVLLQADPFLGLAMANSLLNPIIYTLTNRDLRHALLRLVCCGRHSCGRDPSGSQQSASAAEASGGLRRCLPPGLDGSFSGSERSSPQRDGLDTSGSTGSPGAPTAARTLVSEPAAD
Procedure: (§1) Sphingosine-1-phosphate (S1P) Receptor Profiling
(§2) Agonist activities of compounds are tested on the human S1P receptors EDG-1 (S1P1), EDG-3 (S1P3), EDG-5 (S1P2), EDG-6 (S1P4) and EDG-8 (S1P5). […] The assay technology used is SPA (scintillation proximity based assay). Briefly, DMSO dissolved compounds are serially diluted and added to SPA-bead (Amersham-Pharmacia) immobilised SIP receptor expressing membrane protein (10-20 μg/well) in the presence of 50 mM Hepes, 100 mM NaCl, 10 mM MgCl2, 10 μM GDP, 0.1% fat free BSA and 0.2 nM GTP [γ-^35S] (1200 Ci/mmol). After incubation in 96 well microtiterplates at RT for 120 min, unbound GTP [γ-^35S] is separated by a centrifugation step. Luminescence of SPA beads triggered by membrane bound GTP [γ-^35S] is quantified with a TOPcount plate reader (Packard). EC50s are calculated using standard curve fitting software. In this assay, the compounds of formula I have a binding affinity to S1P1 receptor <50 nM.

[3] = target: T2, human S1P receptor EDG-1 (S1P1) (Homo sapiens, UniProt P21453); test: S1P receptor profiling, GTP[γ-35S] binding SPA; type: biochemical; set-up: key to S1P1 mode of action: Agon = agonist; details: for EC50: membranes of transfected CHO or RH7777 cells
T2 construct: expressed in transfected cells
T2 sequence (P21453 whole entry): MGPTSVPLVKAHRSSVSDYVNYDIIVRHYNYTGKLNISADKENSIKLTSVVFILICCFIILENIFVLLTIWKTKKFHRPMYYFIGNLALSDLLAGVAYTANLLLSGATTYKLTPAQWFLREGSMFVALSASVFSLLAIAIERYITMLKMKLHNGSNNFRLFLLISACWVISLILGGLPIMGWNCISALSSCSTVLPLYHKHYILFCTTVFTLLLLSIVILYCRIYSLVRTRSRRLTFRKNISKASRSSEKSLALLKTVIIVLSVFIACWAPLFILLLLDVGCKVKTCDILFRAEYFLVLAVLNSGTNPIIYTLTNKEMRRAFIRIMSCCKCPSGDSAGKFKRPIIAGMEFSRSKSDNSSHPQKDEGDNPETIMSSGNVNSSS
Procedure: as §1, §2

[4] = target: T3, human S1P receptor EDG-6 (S1P4) (Homo sapiens, UniProt O95977); test: S1P receptor profiling, GTP[γ-35S] binding SPA; type: biochemical; set-up: key to S1P4 mode of action: Agon = agonist; details: for EC50: membranes of transfected CHO or RH7777 cells
T3 construct: expressed in transfected cells
T3 sequence (O95977 1-384): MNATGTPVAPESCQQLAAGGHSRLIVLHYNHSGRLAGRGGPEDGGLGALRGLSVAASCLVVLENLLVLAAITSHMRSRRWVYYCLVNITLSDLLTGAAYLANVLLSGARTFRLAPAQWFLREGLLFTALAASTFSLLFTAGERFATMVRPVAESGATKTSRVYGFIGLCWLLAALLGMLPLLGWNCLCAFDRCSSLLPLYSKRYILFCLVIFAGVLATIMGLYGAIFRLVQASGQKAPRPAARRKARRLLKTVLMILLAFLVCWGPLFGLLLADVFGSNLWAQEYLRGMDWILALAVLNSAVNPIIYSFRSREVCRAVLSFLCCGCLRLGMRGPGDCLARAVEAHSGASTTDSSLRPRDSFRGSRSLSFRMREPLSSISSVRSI
Procedure: as §1, §2

[5] = target: T4, human S1P receptor EDG-3 (S1P3) (Homo sapiens, UniProt Q99500); test: S1P receptor profiling, GTP[γ-35S] binding SPA; type: biochemical; set-up: key to S1P3 mode of action: Agon = agonist; details: for EC50: membranes of transfected CHO or RH7777 cells
T4 construct: expressed in transfected cells
T4 sequence (Q99500 whole entry): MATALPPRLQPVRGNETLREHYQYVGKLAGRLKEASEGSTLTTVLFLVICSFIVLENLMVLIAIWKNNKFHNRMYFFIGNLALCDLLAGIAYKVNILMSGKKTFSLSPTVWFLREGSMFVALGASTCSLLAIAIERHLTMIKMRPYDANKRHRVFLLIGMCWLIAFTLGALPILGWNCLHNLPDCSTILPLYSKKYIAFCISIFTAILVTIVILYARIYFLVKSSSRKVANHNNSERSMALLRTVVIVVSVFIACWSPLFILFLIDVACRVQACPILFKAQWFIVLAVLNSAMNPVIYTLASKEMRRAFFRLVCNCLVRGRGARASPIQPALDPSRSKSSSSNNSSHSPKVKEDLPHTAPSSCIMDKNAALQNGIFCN
Procedure: as §1, §2

Row | S1P5 mode of action [2] | EC50 [2] | S1P1 mode of action [3] | EC50 [3] | S1P4 mode of action [4] | EC50 [4] | S1P3 mode of action [5] | EC50 [5] | SMILES | dose giving depletion of peripheral blood lymphocytes by more than 50% [1]
1 | – | – | – | – | – | – | – | – | CCCCCCCOc1ccc(CC[C@@](C)(N)[C@@H](C)O)cc1 [Example 1, (2R,3R)-3-Amino-5-(4-heptyloxy-phenyl)-3-methyl-pentan-2-ol] | 0.07 mg/kg
2 | – | – | – | – | – | – | – | – | CCCCCOc1ccc2cc(CC[C@@](C)(N)[C@@H](C)O)ccc2c1 [Example 12, (2R,3R)-3-Amino-5-(6-pentyloxy-naphthalen-2-yl)-3-methyl-pentan-2-ol] | 0.4 mg/kg
3 | – | – | – | – | – | – | – | – | C[C@H](O)[C@](C)(N)CCc1ccc(OCCCCCc2ccccc2)cc1 [Example 13, (2S,3R)-3-Amino-3-methyl-5-[4-(5-phenyl-pentyloxy)-phenyl]-pentan-2-ol] | 0.5 mg/kg
4 | – | – | – | – | – | – | – | – | C[C@@H](O)[C@](C)(N)CCc1ccc(OCCCCc2ccccc2)cc1 [Example 14, (2R,3R)-3-Amino-3-methyl-5-[4-(4-phenyl-butoxy)-phenyl]-pentan-2-ol] | 0.1 mg/kg
5 | – | – | – | – | – | – | – | – | C[C@H](O)[C@](C)(N)CCc1ccc(OCCCCc2ccccc2)cc1 [Example 15, (2S,3R)-3-Amino-3-methyl-5-[4-(4-phenyl-butoxy)-phenyl]-pentan-2-ol] | 0.6 mg/kg
6 | – | – | – | – | – | – | – | – | C[C@@H](O)[C@](C)(N)CCc1ccc(OCCc2ccc(-c3ccccc3)cc2)cc1 [Example 17, (2R,3R)-3-Amino-5-[4-(2-biphenyl-4-yl-ethoxy)-phenyl]-3-methyl-pentan-2-ol] | 0.2 mg/kg
7 | Agon | 0.74 nM | Agon | 0.51 nM | Agon | 0.7 nM | Agon | 4.6 nM | CCCCCCCOc1ccc(CC[C@@](C)(N)[C@@H](C)OP(=O)(O)O)cc1 [Example 18, Phosphoric acid mono-[(1R,2R)-2-amino-4-(4-heptyloxy-phenyl)-1,2-dimethyl-butyl]ester] | –
8 | Agon | 0.15 nM | Agon | 0.07 nM | Agon | 0.4 nM | Agon | 1.4 nM | CCCCCCCOc1ccc(CC[C@@](C)(N)[C@H](C)OP(=O)(O)O)cc1 [Example 19, Phosphoric acid mono-[(1S,2R)-2-amino-4-(4-heptyloxy-phenyl)-1,2-dimethyl-butyl]ester] | –
9 | Agon | 0.29 nM | Agon | 0.13 nM | Agon | 0.67 nM | Agon | 8.5 nM | CCCCCOc1ccc2cc(CC[C@@](C)(N)[C@@H](C)OP(=O)(O)O)ccc2c1 [Example 20, Phosphoric acid mono-[(1R,2R)-2-amino-1,2-dimethyl-4-(6-pentyloxy-naphthalen-2-yl)-butyl]ester] | –

Reference: patent US7928093B2, “Amino-propanol derivatives” (Novartis AG, priority 2004, dated 2011)
